Consider three molecules from PMC3130629 (Free radical biology & medicine, 2011).

The conditions of data set [1]: cited from earlier work.
A further data set concerns the target XO. Conditions: read-out: Ki for XO; pH 8.5; cited from earlier work.
A further data set concerns xanthine oxidase (XO). The data set can be described thus: O2•- formation from reaction of inhibitor with purified XO. Type of data set: biochemical. Conditions: XO 10 mU/ml; allopurinol 50 μM, febuxostat 100 nM; cytochrome c reduction.
In data set [2] the test system is XO bound to BAEC GAGs (endothelial cell-bound XO). The data set can be described thus: Inhibition of endothelial cell-bound XO, extracellular O2•- by EPR with PPH. Format: cell-based, bovine. The following applies: xanthine 100 μM, 37°C.
Data set [3] shares this test system. The data set can be described thus: Inhibition of endothelial cell-bound XO, uric acid formation. Format: cell-based, bovine. Conditions: for Inhibition of endothelial cell GAG-bound XO (uric acid formation): even at concentrations above those tolerated clinically (e.g. 200 μM).
Data set [4] concerns the target xanthine oxidase (XO), free in solution (Bos taurus, UniProt P80457). The data set can be described thus: Inhibition of XO free in solution, uric acid formation. Conditions: soluble and HS6B-XO, 0.96 and […] vs ref 16. Format: biochemical.
The target in data set [5] is HS6B-XO (GAG-immobilized xanthine oxidase) (Bos taurus, UniProt P80457).
Another data set addresses soluble XO. The following applies: read-out: Ki, soluble XO; cited from earlier work.
The next data set addresses GAG-bound XOR. Conditions: read-out: Ki, GAG-bound XOR; cited from earlier work.

Sequence of HS6B-XO (GAG-immobilized xanthine oxidase) (P80457 whole entry): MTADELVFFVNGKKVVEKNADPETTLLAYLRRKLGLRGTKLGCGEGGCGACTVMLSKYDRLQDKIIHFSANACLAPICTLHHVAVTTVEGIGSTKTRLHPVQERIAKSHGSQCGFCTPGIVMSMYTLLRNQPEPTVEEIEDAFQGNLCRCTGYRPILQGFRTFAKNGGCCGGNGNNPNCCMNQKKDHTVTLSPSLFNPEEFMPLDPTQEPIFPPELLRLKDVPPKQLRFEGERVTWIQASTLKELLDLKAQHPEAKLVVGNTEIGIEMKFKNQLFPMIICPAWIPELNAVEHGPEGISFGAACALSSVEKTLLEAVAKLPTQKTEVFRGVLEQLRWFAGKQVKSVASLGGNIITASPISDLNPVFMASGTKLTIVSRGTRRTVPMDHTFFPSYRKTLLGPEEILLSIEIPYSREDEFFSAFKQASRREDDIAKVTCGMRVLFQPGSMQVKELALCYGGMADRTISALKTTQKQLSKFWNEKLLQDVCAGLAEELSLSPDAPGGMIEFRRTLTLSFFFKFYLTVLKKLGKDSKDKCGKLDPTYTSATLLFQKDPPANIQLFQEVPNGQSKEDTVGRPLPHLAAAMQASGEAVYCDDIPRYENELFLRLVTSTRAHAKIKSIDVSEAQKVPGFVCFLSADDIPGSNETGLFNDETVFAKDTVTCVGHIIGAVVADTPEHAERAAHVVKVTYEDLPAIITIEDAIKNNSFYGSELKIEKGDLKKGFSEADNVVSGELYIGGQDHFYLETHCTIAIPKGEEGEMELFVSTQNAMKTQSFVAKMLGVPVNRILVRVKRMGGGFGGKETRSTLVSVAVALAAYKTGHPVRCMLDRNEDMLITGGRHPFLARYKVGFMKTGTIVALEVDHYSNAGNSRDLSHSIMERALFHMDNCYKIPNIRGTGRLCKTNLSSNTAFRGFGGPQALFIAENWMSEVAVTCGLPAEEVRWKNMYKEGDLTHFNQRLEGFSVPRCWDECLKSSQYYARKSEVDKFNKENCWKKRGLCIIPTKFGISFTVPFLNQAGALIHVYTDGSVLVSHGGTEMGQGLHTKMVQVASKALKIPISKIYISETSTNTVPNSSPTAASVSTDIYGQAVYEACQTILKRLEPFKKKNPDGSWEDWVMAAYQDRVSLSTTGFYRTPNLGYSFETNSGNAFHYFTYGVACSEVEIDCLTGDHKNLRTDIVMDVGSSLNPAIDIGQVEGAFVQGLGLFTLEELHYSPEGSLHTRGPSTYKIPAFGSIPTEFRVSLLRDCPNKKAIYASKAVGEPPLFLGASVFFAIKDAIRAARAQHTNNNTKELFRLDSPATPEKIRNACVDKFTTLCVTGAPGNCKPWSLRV
Sequence of xanthine oxidase (XO), free in solution (P80457 whole entry): as above

Take `Oc1ncnc2[nH]ncc12` [allopurinol]: the Concentrations seen clinically in data set [1] was 20 to 90 µM. In addition, the Ki on XO is 700 nM. Also, the “O2•- formation on exposure of purified XO to the inhibitor” value in the data set with xanthine oxidase (XO) was “significant O2 ^•- formation”. Moreover, the “Reduction of cell-bound O2•- radical formation (EPR, PP• radical)” value in [2] (200 μM) is 80%. The “Inhibition of endothelial cell GAG-bound XO (uric acid formation)” value in data set [3] is given as “no more than 80%”.
With `Cc1nc(-c2ccc(OCC(C)C)c(C#N)c2)sc1C(=O)O` [febuxostat], the Cmax in data set [1] (reported) is 15 µM. Further, the “Ki (pH 7.4) higher than previously reported Ki (pH 8.5)” value in data set [4] is listed as ~ 8 fold. Further, the “Concentration giving complete inhibition of uric acid and O2•- production from HS6B-XO” value in data set [5] is listed as not above 50 nM. In addition, the Ki on XO is 0.12 nM. In addition, the “O2•- formation on exposure of purified XO to the inhibitor” value in the data set on xanthine oxidase (XO) is “no detectable O2 ^•-”. Further, the “Reduction of cell-bound O2•- production (EPR, PP• radical)” value in [2] (50 nM) was found to be 100%. Besides, the “Inhibition of uric acid formation from endothelial cell-bound XO” value in [3] (25 nM febuxostat, xanthine 100 μM, 1 h) is “completely inhibited”.
For the molecule `O=c1[nH]c(=O)c2c[nH]nc2[nH]1` [oxypurinol], the Concentrations seen clinically in [1] was 20 to 90 µM. Further, the Ki is 230 nM at soluble XO and 405 nM on GAG-bound XOR. In data set [3], the “Inhibition of endothelial cell GAG-bound XO (uric acid formation)” value is “no more than 80%”.
